Where two headings read alike, the source gives them in different places.
Experiments:
A2780s cells = settings: A2780s model, 16 times; for tumor inhibitory rate: vs solvent group
Breast cancer SKBR3 = test: Cell proliferative activity (MTT / cck-8); type: cell-based; settings: Homo sapiens, SK-BR-3, read-out: Half-Inhibitory Concentration IC50 SKBR3
HDAC10 = HDAC10 (Homo sapiens, UniProt Q969S8); settings: read-out: IC50 HDAC10; Table 4, Class IIb
Procedure: (§2) The HDAC inhibitory activity was determined by fluorescence-coupled acetylated peptide substrate assay (Lys-Ac-AMC). HDAC1 protein was purchased from BPS Bioscience, and the reaction buffer system was a modified tris(hydroxymethyl)aminomethane buffer (pH 7.0). The small molecule compounds of the present invention were prepared by being dissolved in 100% DMSO. HDAC was prepared in a buffer at a certain concentration as an enzyme solution; trypsin and fluorescent group 4-amino-7-coumarin coupled-acetylated peptide (Ac-peptide) substrate were prepared in a buffer at a certain concentration as a substrate solution. The compounds were added into the reaction wells in a 384-well plate at a designed concentration of 10 μM, 1 μM, 0.5 μM, 0.1 μM, 0.05 μM, 0.01 μM, 0.005 μM, 0.001 μM, and 0.00005 μM, respectively, and then 15 μl of the HDAC solution was added into the reaction wells (15 μl of blank buffer to the control well). […] The results were analyzed by GraphPad Prism software and IC50 values were calculated according to the formula: Y=Background Data+(Top Data−Background Data)/(1+10^((Log IC50−X) a curve slope)), where Y: the inhibition rate (%) and X: the concentration of the compound.

Colon cancer HCT116 = test: Cell proliferative activity (MTT / cck-8); type: cell-based; settings: Homo sapiens, HCT-116, read-out: Half-Inhibitory Concentration IC50 HCT116
Ramos cells = test: Therapeutic effect on the B-cell lymphoma Ramos subcutaneous tumor model; type: in vivo, NOD/SCID mice; settings: 6 times; for tumor inhibitory rate: vs solvent group
Multiple myeloma U266 = test: Cell proliferative activity (MTT / cck-8); type: cell-based; settings: Homo sapiens, U-266, read-out: Half-Inhibitory Concentration IC50 U266
How it was run: (§1)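 Plating density was 2000-3000 log-phase cells/well, and adherent cells attached before compound exposure. Endpoint: CCK-8 for lymphoma cells, MTT for solid-tumour cells.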

[1] = test system: Human cervical cancer cell Hela; test: Cell proliferative activity (MTT / cck-8); type: cell-based
How it was run: as §1

Human melanoma A375 = test: Cell proliferative activity (MTT / cck-8); type: cell-based; settings: A-375, incubated for 96 hours, read-out: Half-Inhibitory Concentration IC50 Human melanoma A375
How it was run: as §1

Leukemia MV4-11 = test: Cell proliferative activity (MTT / cck-8); type: cell-based; settings: Homo sapiens, read-out: Half-Inhibitory Concentration IC50 MV4-11
How it was run: as §1

B-cell lymphoma Ramos = test: Cell proliferative activity (MTT / cck-8); type: cell-based; settings: Homo sapiens, read-out: Half-Inhibitory Concentration IC50 Ramos
How it was run: as §1

[2] = test system: Human liver cancer cell HepG2; test: Cell proliferative activity (MTT / cck-8); type: cell-based
How it was run: as §1

[3] = test system: Multiple myeloma RPMI8226; test: Cell proliferative activity (MTT / cck-8); type: cell-based; settings: Homo sapiens, RPMI-8226, read-out: Half-Inhibitory Concentration IC50 RPMI8226
How it was run: as §1

HDAC3 = HDAC3 (Homo sapiens, UniProt O15379); settings: read-out: IC50 HDAC3; Table 4, Class I
Procedure: The HDAC inhibitory activity was determined by fluorescence-coupled acetylated peptide substrate assay (Lys-Ac-AMC). […] The small molecule compounds of the present invention were prepared by being dissolved in 100% DMSO. HDAC was prepared in a buffer at a certain concentration as an enzyme solution; trypsin and fluorescent group 4-amino-7-coumarin coupled-acetylated peptide (Ac-peptide) substrate were prepared in a buffer at a certain concentration as a substrate solution. The compounds were added into the reaction wells in a 384-well plate at a designed concentration of 10 μM, 1 μM, 0.5 μM, 0.1 μM, 0.05 μM, 0.01 μM, 0.005 μM, 0.001 μM, and 0.00005 μM, respectively, and then 15 μl of the HDAC solution was added into the reaction wells (15 μl of blank buffer to the control well). […] The results were analyzed by GraphPad Prism software and IC50 values were calculated according to the formula: Y=Background Data+(Top Data−Background Data)/(1+10^((Log IC50−X) a curve slope)), where Y: the inhibition rate (%) and X: the concentration of the compound.

HCT116 cells = test: Therapeutic effect on the colon cancer HCT116 subcutaneous tumor model (intragastric); settings: 8 times, vs solvent group
HDAC1 = biological target: T1, HDAC1 (Homo sapiens, UniProt Q13547); test: HDAC inhibitory activity, fluorescence-coupled acetylated peptide substrate assay (Lys-Ac-AMC); type: biochemical
T1 construct: purchased BPS Bioscience
Procedure: as §2

HDAC6 = biological target: T2, HDAC6 (Homo sapiens, UniProt Q9UBN7); test: HDAC inhibitory activity, fluorescence-coupled acetylated peptide substrate assay; type: biochemical
T2 sequence (Q9UBN7 1-1215): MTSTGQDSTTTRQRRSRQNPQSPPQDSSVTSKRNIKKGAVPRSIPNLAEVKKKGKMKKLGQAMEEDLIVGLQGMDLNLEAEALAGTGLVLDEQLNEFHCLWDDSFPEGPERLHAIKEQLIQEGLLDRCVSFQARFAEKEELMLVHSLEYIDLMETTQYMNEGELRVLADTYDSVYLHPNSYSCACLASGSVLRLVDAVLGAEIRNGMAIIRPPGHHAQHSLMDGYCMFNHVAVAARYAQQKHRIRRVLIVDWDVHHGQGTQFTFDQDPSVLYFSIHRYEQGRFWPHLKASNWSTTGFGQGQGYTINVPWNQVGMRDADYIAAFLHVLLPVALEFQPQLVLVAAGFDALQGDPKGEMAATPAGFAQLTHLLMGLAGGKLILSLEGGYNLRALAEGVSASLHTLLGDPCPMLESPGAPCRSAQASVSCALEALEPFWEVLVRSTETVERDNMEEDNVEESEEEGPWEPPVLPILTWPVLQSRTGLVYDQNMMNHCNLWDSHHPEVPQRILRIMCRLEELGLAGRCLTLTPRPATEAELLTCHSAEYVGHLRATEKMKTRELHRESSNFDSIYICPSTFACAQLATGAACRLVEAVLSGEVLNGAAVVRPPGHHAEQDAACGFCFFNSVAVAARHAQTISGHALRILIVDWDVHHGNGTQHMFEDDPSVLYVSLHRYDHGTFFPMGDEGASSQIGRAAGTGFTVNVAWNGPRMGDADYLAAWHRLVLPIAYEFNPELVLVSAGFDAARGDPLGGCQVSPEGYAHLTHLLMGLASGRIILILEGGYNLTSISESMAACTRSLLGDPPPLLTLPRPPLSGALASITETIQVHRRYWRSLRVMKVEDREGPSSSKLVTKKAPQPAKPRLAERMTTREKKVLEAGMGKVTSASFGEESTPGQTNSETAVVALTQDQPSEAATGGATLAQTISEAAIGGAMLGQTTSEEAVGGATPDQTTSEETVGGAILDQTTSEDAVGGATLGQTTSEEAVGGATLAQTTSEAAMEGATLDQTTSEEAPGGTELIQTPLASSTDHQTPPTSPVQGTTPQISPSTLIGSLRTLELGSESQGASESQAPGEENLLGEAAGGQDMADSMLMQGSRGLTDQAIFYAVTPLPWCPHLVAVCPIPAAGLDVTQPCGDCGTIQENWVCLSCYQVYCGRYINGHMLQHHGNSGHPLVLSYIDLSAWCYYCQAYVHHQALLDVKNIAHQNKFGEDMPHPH
Procedure: as §2

[4] = 12.5 mg/kg intragastrically once every other day
[5] = 25 mg/kg intragastrically once every other day
[6] = 50 mg/kg intragastrically once every other day

T1 sequence (Q13547 whole entry): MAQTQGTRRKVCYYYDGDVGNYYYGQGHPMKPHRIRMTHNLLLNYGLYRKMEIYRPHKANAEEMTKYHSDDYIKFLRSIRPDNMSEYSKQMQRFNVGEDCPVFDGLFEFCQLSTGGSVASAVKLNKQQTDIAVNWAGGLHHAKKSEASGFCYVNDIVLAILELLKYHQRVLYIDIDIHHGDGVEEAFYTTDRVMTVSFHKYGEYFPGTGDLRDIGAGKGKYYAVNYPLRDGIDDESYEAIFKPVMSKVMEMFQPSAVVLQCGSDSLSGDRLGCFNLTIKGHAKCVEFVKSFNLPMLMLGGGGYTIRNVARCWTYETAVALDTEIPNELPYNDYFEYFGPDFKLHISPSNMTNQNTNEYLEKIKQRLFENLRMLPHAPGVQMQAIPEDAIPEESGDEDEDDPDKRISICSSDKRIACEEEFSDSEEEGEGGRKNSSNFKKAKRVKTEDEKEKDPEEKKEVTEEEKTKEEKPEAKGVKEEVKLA
Sequence of HDAC3 (O15379 whole entry): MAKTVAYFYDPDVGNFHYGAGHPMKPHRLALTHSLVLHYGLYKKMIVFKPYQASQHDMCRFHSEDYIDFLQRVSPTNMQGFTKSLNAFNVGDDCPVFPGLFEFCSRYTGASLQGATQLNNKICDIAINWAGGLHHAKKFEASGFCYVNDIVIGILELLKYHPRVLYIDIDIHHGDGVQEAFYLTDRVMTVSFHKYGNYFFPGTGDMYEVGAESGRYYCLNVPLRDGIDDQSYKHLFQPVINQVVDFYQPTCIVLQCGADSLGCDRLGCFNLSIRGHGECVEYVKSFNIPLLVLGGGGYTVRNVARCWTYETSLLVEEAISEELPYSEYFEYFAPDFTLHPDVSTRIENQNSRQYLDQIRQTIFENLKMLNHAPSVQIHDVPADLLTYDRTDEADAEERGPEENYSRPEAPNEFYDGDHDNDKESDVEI
Sequence of HDAC3 (Q9Y618 395-489 partner limits assumed): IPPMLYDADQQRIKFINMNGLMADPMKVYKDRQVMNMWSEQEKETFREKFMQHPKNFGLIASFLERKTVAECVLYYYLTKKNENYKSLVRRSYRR
Sequence of HDAC10 (Q969S8 whole entry): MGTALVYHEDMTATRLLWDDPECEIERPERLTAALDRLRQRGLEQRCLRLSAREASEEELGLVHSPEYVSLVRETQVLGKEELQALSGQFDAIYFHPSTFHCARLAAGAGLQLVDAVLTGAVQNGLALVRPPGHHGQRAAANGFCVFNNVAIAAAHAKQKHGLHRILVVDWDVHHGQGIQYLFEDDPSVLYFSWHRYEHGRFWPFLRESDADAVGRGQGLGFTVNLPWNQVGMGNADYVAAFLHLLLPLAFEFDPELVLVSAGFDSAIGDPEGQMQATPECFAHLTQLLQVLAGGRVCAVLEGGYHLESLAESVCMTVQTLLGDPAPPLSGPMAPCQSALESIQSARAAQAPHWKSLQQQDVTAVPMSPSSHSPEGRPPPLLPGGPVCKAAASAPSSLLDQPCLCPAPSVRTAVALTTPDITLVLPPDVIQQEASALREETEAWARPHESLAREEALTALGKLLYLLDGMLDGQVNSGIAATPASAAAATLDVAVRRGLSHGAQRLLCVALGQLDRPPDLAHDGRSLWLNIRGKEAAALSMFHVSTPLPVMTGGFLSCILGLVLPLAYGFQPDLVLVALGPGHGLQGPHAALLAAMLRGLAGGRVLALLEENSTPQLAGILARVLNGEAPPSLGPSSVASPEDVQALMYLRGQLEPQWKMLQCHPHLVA

COc1ccc(N(C)c2nc(C)nc3ccccc23)cc1OCCCC(=O)NO [III-2, N-hydroxy-4-(2-methoxy-5-(methyl(2-methyl-4-quinazolinyl)amino)phenoxy) butanamide]
tumor inhibitory rate (A2780s cells; [4]): 78.49%
tumor inhibitory rate (A2780s cells; [5]): 82.02%
death of mice during the experiment (A2780s cells; [6]): one mouse died
tumor inhibitory rate (A2780s cells; [6]): 81.70%
IC50 (Breast cancer SKBR3): 0.022 ± 0.008 µM
IC50 (HDAC10): 1.18 ± 0.168 µM
IC50 (Colon cancer HCT116): 0.035 ± 0.021 µM
tumor inhibitory rate (Ramos cells; 10 mg/kg intragastrically once every other day): no effects on inhibiting tumor growth
tumor inhibitory rate (Ramos cells; 20 mg/kg intragastrically once every other day): no effects on inhibiting tumor growth
tumor inhibitory rate (Ramos cells; 40 mg/kg intragastrically once every other day): 22.54%
toxicity (death of mice during the experiment) (Ramos cells; 80 mg/kg intragastrically once every other day, a mouse died): may exhibit toxicity to a few individuals
tumor inhibitory rate (Ramos cells; 80 mg/kg intragastrically once every other day): 58.79%
IC50 (Multiple myeloma U266): 0.014 ± 0.006 µM
IC50 ([1]; Cervical cancer, Table 5, read-out: Half-Inhibitory Concentration IC50 Hela): 0.049 ± 0.02 µM
IC50 ([1]; incubated for 96 hours, read-out: Half-Inhibitory Concentration IC50 Human cervical cancer cell Hela): 0.01 to 0.1 µM
IC50 (Human melanoma A375): 0.01 to 0.1 µM
IC50 (Leukemia MV4-11): 0.06 ± 0.032 µM
IC50 (B-cell lymphoma Ramos): 0.071 ± 0.031 µM
IC50 ([2]; Liver cancer, Table 5, read-out: Half-Inhibitory Concentration IC50 HepG2): 0.041 ± 0.001 µM
IC50 ([2]; incubated for 96 hours, read-out: Half-Inhibitory Concentration IC50 Human liver cancer cell HepG2): 0.01 to 0.1 µM
IC50 [3]: 0.015 ± 0.004 µM
IC50 (HDAC3): 0.439 ± 0.009 µM
tumor inhibitory rate (HCT116 cells; 6.25 mg/kg intragastrically once every other day): 51.28%
tumor inhibitory rate (HCT116 cells; [4]): 58.64%
tumor inhibitory rate (HCT116 cells; [5]): 60.37%
tumor inhibitory rate (HCT116 cells; [6]): 66.05%
IC50 (HDAC1; Table 2): 0.1 to 1 µM
IC50 (HDAC1; Table 4, Class I): 0.422 ± 0.001 µM
IC50 (HDAC6; Table 2): 0.01 to 0.1 µM
IC50 (HDAC6; Table 4, Class IIb): 0.017 ± 0.002 µM

From patent publication US10532053B2, “Histone deacetylase inhibitor, and preparation method and use thereof” (GUANGDONG ZHONGSHENG PHARMACEUTICAL CO., LTD, priority 2015, dated 2020)
